30 molecules from US8703805B2 (Exelixis Patent Company LLC, priority 2005, dated 2014) can be followed below.

The assay deals with LXRα and/or LXRβ. The experiment in a line: LXR/LXRE co-transfection assay (luciferase reporter, CV-1 cells). It counts as cell-based, human. The note with it: IC50 or EC50 for LXR (LXRα and/or LXRβ, not distinguished), tested as described in Example 109, CV-1 cells. Summed up: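 Luciferase readout after 20 h compound exposure at 37 °C in CV-1 cells transiently expressing human LXRα or LXRβ with RXRα and an LXRE-driven reporter. Dose-response over 8 points at ½-log spacing, 4 wells each, fitted for EC50/IC50; values average ≥3 independent experiments, efficacy as % of high control.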
For orientation: A reporter such as luciferase makes a cellular process visible.

`CS(=O)(=O)CCN1CCN(C(=O)c2ccc(-c3cc(C(F)(F)F)nn3-c3ccccc3Cl)cc2)CC1` [Example 1365, 1-({4-[1-(2-chlorophenyl)-3-(trifluoromethyl)-1H-pyrazol-5-yl]phenyl}carbonyl)-4-[2-(methylsulfonyl)ethyl]piperazine]: the EC50 – broadly, the concentration needed to bring the measured effect to its halfway point – is 1 to 10 µM. For the molecule `CC(C)(O)c1nn(-c2cccc(Cl)c2F)c(-c2ccc(-c3cccc(S(C)(=O)=O)c3)s2)c1Cl` [Example 1366, 2-[4-chloro-1-(3-chloro-2-fluorophenyl)-5-{5-[3-(methylsulfonyl)phenyl]-2-thienyl}-1H-pyrazol-3-yl]propan-2-ol], the EC50 is under 1 µM. Turning to `CC(C)(O)c1nn(-c2ccccc2OC(F)(F)F)c(-c2ccc(-c3cccc(S(C)(=O)=O)c3)s2)c1Cl` [Example 1367, 2-(4-chloro-5-{5-[3-(methylsulfonyl)phenyl]-2-thienyl}-1-{2-[(trifluoromethyl)oxy]phenyl}-1H-pyrazol-3-yl)propan-2-ol], the EC50 is under 1 µM.

In turn, `CC(C)(O)c1nn(-c2ccccc2Br)c(-c2ccc(-c3cccc(S(C)(=O)=O)c3)s2)c1Cl` [Example 1368, 2-[1-(2-bromophenyl)-4-chloro-5-{5-[3-(methylsulfonyl)phenyl]-2-thienyl}-1H-pyrazol-3-yl]propan-2-ol] came in with a half-maximal effective concentration (EC50) of under 1 µM.

Regarding `CC(C)(O)c1nn(-c2cnccc2C(F)(F)F)c(-c2ccc(-c3cccc(S(C)(=O)=O)c3)s2)c1Br` [Example 1369, 2-(4-bromo-5-{5-[3-(methylsulfonyl)phenyl]-2-thienyl}-1-[4-(trifluoromethyl)pyridin-3-yl]-1H-pyrazol-3-yl)propan-2-ol], the EC50 is under 1 µM. As for `CC(C)(O)c1nn(-c2cccc(F)c2Cl)c(-c2ccc(-c3cccc(S(C)(=O)=O)c3)s2)c1Cl` [Example 1371, 2-[4-chloro-1-(2-chloro-3-fluorophenyl)-5-{5-[3-(methylsulfonyl)phenyl]-2-thienyl}-1H-pyrazol-3-yl]propan-2-ol], the EC50 was under 1 µM.

On to `CC(C)(O)c1nn(-c2cccc(F)c2Cl)c(-c2ccc(-c3cccc(S(C)(=O)=O)c3)s2)c1Br` [Example 1372, 2-[4-bromo-1-(2-chloro-3-fluorophenyl)-5-{5-[3-(methylsulfonyl)phenyl]-2-thienyl}-1H-pyrazol-3-yl]propan-2-ol], for which the EC50 is under 1 µM.

`CCc1ccccc1-n1nc(C(C)(C)O)c(Cl)c1-c1ccc(-c2cccc(S(C)(=O)=O)c2)s1` [Example 1373, 2-[4-chloro-1-(2-ethylphenyl)-5-{5-[3-(methylsulfonyl)phenyl]-2-thienyl}-1H-pyrazol-3-yl]propan-2-ol]: the EC50 was under 1 µM. The same measure for `Cn1c(-c2cccc(S(C)(=O)=O)c2)ccc1-c1cc(C(C)(C)O)nn1-c1ccccc1Cl` [Example 1383, 2-(1-(2-chlorophenyl)-5-(1-methyl-5-(3-(methylsulfonyl)phenyl)-1H-pyrrol-2-yl)-1H-pyrazol-3-yl)propan-2-ol]: under 1 µM; for `Cc1cc(-c2cccc(S(C)(=O)=O)c2)ccc1-c1cc(C(C)(C)O)nn1Cc1cccc(Cl)c1Cl` [Example 1384, 2-(1-(2,3-dichlorobenzyl)-5-(3-methyl-3′-(methylsulfonyl)biphenyl-4-yl)-1H-pyrazol-3-yl)propan-2-ol]: under 1 µM. `CC(C)(O)c1cc(-c2ccc(-c3cccc(S(C)(=O)=O)c3)cc2Cl)n(-c2cccnc2C(F)(F)F)n1` [Example 1385, 2-(5-(3-chloro-3′-(methylsulfonyl)biphenyl-4-yl)-1-(2-(trifluoromethyl)pyridin-3-yl)-1H-pyrazol-3-yl)propan-2-ol] yielded a half-maximal effective concentration (EC50) of under 1 µM. `Cc1cc(-c2cccc(S(C)(=O)=O)c2)ccc1-c1c(Cl)c(C(C)(C)O)nn1-c1c(Cl)cccc1Cl` [Example 1386, 2-(4-chloro-1-(2,6-dichlorophenyl)-5-(3-methyl-3′-(methylsulfonyl)biphenyl-4-yl)-1H-pyrazol-3-yl)propan-2-ol] registered an EC50 of under 1 µM. The molecule `CC(C)(O)c1nn(-c2cccnc2C(F)(F)F)c(-c2ccc(-c3cccc(S(C)(=O)=O)c3)cc2Cl)c1Cl` [Example 1387, 2-(4-chloro-5-(3-chloro-3′-(methylsulfonyl)biphenyl-4-yl)-1-(2-(trifluoromethyl)pyridin-3-yl)-1H-pyrazol-3-yl)propan-2-ol] displayed an EC50 of under 1 µM. `CC(C)CNC(=O)c1cc(-c2ccc(-c3cccc(S(C)(=O)=O)c3)cc2Cl)n(-c2cccnc2C(F)(F)F)n1` [Example 1388, 5-(3-chloro-3′-(methylsulfonyl)biphenyl-4-yl)-N-isobutyl-1-(2-(trifluoromethyl)pyridin-3-yl)-1H-pyrazole-3-carboxamide] gave an EC50 of under 1 µM.

With `CC(C)CNC(=O)c1cc(-c2ccc(-c3cccc(S(C)(=O)=O)c3)cc2Cl)n(-c2c(Cl)cccc2Cl)n1` [Example 1389, 5-(3-chloro-3′-(methylsulfonyl)biphenyl-4-yl)-1-(2,6-dichlorophenyl)-N-isobutyl-1H-pyrazole-3-carboxamide], the EC50 is under 1 µM. Take `Cc1cc(-c2cccc(S(C)(=O)=O)c2)ccc1-c1cc(C(C)(C)O)nn1-c1cccnc1C(F)(F)F` [Example 1390, 2-(5-(3-methyl-3′-(methylsulfonyl)biphenyl-4-yl)-1-(2-(trifluoromethyl)pyridin-3-yl)-1H-pyrazol-3-yl)propan-2-ol]: the EC50 was under 1 µM. As for `Cc1cc(-c2cccc(S(C)(=O)=O)c2)ccc1-c1c(Cl)c(C(C)(C)O)nn1-c1cccnc1C(F)(F)F` [Example 1391, 2-(4-chloro-5-(3-methyl-3′-(methylsulfonyl)biphenyl-4-yl)-1-(2-(trifluoromethyl)pyridin-3-yl)-1H-pyrazol-3-yl)propan-2-ol], the figure is under 1 µM.

For the molecule `Cn1c(-c2cccc(S(C)(=O)=O)c2)ccc1-c1cc(C(C)(C)O)nn1-c1c(Cl)cccc1Cl` [Example 1393, 2-(1-(2,6-dichlorophenyl)-5-(1-methyl-5-(3-(methylsulfonyl)phenyl)-1H-pyrrol-2-yl)-1H-pyrazole-3-yl)propan-2-ol], the EC50 was 1 to 10 µM. Regarding `CC(C)(O)c1cccc(-c2ccc(-c3cc(C(F)(F)F)nn3-c3c(Cl)cccc3Cl)c(Cl)c2)c1` [Example 1395, 2-(3′-chloro-4′-(1-(2,6-dichlorophenyl)-3-(trifluoromethyl)-1H-pyrazol-5-yl)biphenyl-3-yl)propan-2-ol], the EC50 is under 1 µM. On to `CS(=O)(=O)c1cccc(-c2ccc(-c3cc(C(=O)NCC(F)(F)F)nn3-c3c(Cl)cccc3Cl)c(Cl)c2)c1` [Example 1397, 5-(3-chloro-3′-(methylsulfonyl)biphenyl-4-yl)-1-(2,6-dichlorophenyl)-N-(2,2,2-trifluoroethyl)-1H-pyrazole-3-carboxamide], for which the EC50 was under 1 µM. `Cc1cc(-c2cc(C(C)(C)O)nn2-c2c(Cl)cccc2Cl)ccc1-c1cccc(S(C)(=O)=O)c1` [Example 1398, 2-(1-(2,6-dichlorophenyl)-5-(2-methyl-3′-(methylsulfonyl)biphenyl-4-yl)-1H-pyrazol-3-yl)propan-2-ol] displayed an EC50 of 1 to 10 µM.

For `CC(C)(O)c1cc(-c2ccc(-c3cccc(S(C)(=O)=O)c3)cc2)n(Cc2cccc(Cl)c2Cl)n1` [Example 1400, 2-(1-(2,3-dichlorobenzyl)-5-(3′-(methylsulfonyl)biphenyl-4-yl)-1H-pyrazol-3-yl)propan-2-ol], the EC50 was under 1 µM. In the case of `CS(=O)(=O)c1cccc(-c2ccc(-c3cc(C(=O)NCC(F)(F)F)nn3-c3cccnc3C(F)(F)F)c(Cl)c2)c1` [Example 1401, 5-(3-chloro-3′-(methylsulfonyl)biphenyl-4-yl)-N-(2,2,2-trifluoroethyl)-1-(2-(trifluoromethyl)pyridin-3-yl)-1H-pyrazole-3-carboxamide], the EC50 is under 1 µM. `CC(C)(O)c1cc(-c2ccc(-c3cccc(S(C)(=O)=O)c3)cc2Cl)n(Cc2cccc(Cl)c2Cl)n1` [Example 1402, 2-(5-(3-chloro-3′-(methylsulfonyl)biphenyl-4-yl)-1-(2,3-dichlorobenzyl)-1H-pyrazol-3-yl)propan-2-ol] had an EC50 of under 1 µM. In turn, `CS(=O)(=O)c1cccc(-c2ccc(-c3c(Cl)c(C(=O)NCC(F)(F)F)nn3-c3cccnc3C(F)(F)F)c(Cl)c2)c1` [Example 1403, 4-chloro-5-(3-chloro-3′-(methylsulfonyl)biphenyl-4-yl)-N-(2,2,2-trifluoromethyl)-1-(2-(trifluoromethyl)pyridin-3-yl)-1H-pyrazole-3-carboxamide] showed an EC50 of under 1 µM. In turn, `Cc1cc(NCCN2CCCCC2)ccc1-c1cc(C(C)(C)O)nn1-c1c(Cl)cccc1Cl` [Example 1405, 2-(1-(2,6-dichlorophenyl)-5-(2-methyl-4-(2-(piperidin-1-yl)ethylamino)phenyl)-1H-pyrazol-3-yl)propan-2-ol] had a 50% effective concentration (EC50) of over 10 µM.

In turn, `CC(C)(O)c1nn(-c2ccc(-c3cccc(S(C)(=O)=O)c3)cc2Cl)c(-c2c(Cl)cccc2Cl)c1Cl` [Example 1414, 2-(4-chloro-1-(3-chloro-3′-(methylsulfonyl)biphenyl-4-yl)-5-(2,6-dichlorophenyl)-1H-pyrazol-3-yl)propan-2-ol] registered an EC50 of under 1 µM.

`Cc1cc(-n2nc(C(C)(C)O)cc2-c2c(Cl)cccc2Cl)ccc1-c1cccc(S(C)(=O)=O)c1` [Example 1417, 2-(5-(2,6-dichlorophenyl)-1-(2-methyl-3′-(methylsulfonyl)biphenyl-4-yl)-1H-pyrazol-3-yl)propan-2-ol] displayed an EC50 of 1 to 10 µM. In turn, `Cc1cc(-n2nc(C(C)(C)O)c(Cl)c2-c2c(Cl)cccc2Cl)ccc1-c1cccc(S(C)(=O)=O)c1` [Example 1419, 2-(4-chloro-5-(2,6-dichlorophenyl)-1-(2-methyl-3′-(methylsulfonyl)biphenyl-4-yl)-1H-pyrazol-3-yl)propan-2-ol] registered an EC50 of 1 to 10 µM. Turning to `Cc1cc(-c2cccc(S(C)(=O)=O)c2)ccc1-n1nc(C(C)(C)O)c(Cl)c1-c1ccccc1C(F)(F)F` [Example 1420, 2-(4-chloro-1-(3-methyl-3′-(methylsulfonyl)biphenyl-4-yl)-5-(2-(trifluoromethyl)phenyl)-1H-pyrazol-3-yl)propan-2-ol], the EC50 is under 1 µM.
